Measured values taken from patent publication US20230133672A1, “FUSION POLYPEPTIDE COMPRISING GDF15 AND POLYPEPTIDE REGION CAPABLE OF O-GLYCOSYLATION” (LG CHEM, LTD., priority 2019, published 2023).

Columns and labels:
[1] = Single administration: body weight change in DIO mice; type: in vivo, Mouse, C57BL/6J-DIO; settings: single s.c. injection, mean
Protocol: The pharmacological effect of the fusion polypeptides produced and purified in Example 1 above was tested in mice (C57BL/6J, 6-week-old, male, 100 mice; Raonbio).
In the present example, DI0 mouse model (Mouse, C57BL/6J-DIO, male, 100 mice, 14-week-old (obesity feed feeding for 8 weeks)) in which obesity was induced by feeding a high-fat diet into the C57BL/6J mice for 8 weeks was used.
The administration of the test substances HT-ID1-GDF15, HT-ID2-GDF15, and HT-ID3-GDF15 and the control substance Semaglutide (Bachem) was conducted from the next day after group separation, and the administration time was performed at 9 AM every day. Subcutaneous administration was conducted for all the control substance and test substances. For the administration route of the control substance and test substances, subcutaneous administration was selected depending on the clinically scheduled administration route.
For all the control substance and test substances, the amount of the administration solution was set to 5 mL/kg and the administration liquid by individual was calculated on the basis of the recently measured body weight and it was administered by subcutaneous injection once on the start day of the test using a disposable syringe (1 mL). The test substances were administered only once. For comparison, the control group in which the control substance Semaglutide was administered was prepared, and the comparison group in which Semaglutide was administered was administered once a day, and all the administration was progressed from 9 AM.
As for the observation, measurement and test schedule for the test groups, the administration start date was set to Day 0, and 7 days from the administration start date were set to one week of administration.
The body weight of each mouse was measured on the day of the start of administration of the test substances (before administration), and thereafter, the body weight was measured every day (measured up to 9 days), and the amount of the administration solution of the test substances was determined on the basis of the most recently measured body weight.
All the experimental results obtained in the present example were expressed as mean±standard error and tested using Prism5 (version 5.01). One-way analysis of variance (ANOVA) was performed on all data, and when significance was observed, Dunnett's test was performed to find out the test groups with a significant difference from the control group (significance level: two-sided 5% and 1%, 0.1%).

[2] = Pharmacokinetic test, subcutaneous administration to SD rats (serum ELISA, Human GDF15 Immunoassay); type: in vivo; settings: 2 mg/kg subcutaneous, serum
Protocol: For evaluation of pharmacokinetic characteristics when each fusion polypeptide was subcutaneously administered to rats, the fusion polypeptides HT-ID1-GDF15, HT-ID2-GDF15 and HT-ID3-GDF15 were subcutaneously administered into SD rats (Koatech, male, 7-week-old, about 250 g; n=3 each; test group) in an amount of 2 mg/kg, respectively, and about 200 μl of blood was collected through the caudal vein at a predetermined time. The blood collection time was performed before administration, and 1, 2, 4, 8, 24, 48, 72, 96, 168, 240 and 336 hours after administration. As the control group for comparison of pharmacokinetic characteristics, GDF15 (R&D Systems) was subcutaneously administered in an amount of 2 mg/kg by the same method to prepare a GDF15 administration group.
After administering into SD Rats as above, blood collected by time-point was centrifuged to obtain serum, and ELISA was performed using Human GDF15 Immunoassay (SGD150, R&D Systems), and the concentration in the serum was measured depending on the time of each polypeptide.

Question: For “HT-ID3-GDF15: Fusion polypeptide: His-Tag, TEV cleavage site, three IgD hinges, GS linker, GDF15 (SEQ ID NO: 3)”, which “Body Weight (Group, % of initial)” value ([1]; Day 0, 10 nmol/kg) is on record?
Answer: The value was 100 % of initial.

Question: And the “Body Weight (Group, % of initial)” value ([1]; Day 1, 10 nmol/kg)?
Answer: The value was 98 % of initial.

Question: What about the “Body Weight (Group, % of initial)” value ([1]; Day 2, 10 nmol/kg) of the same substance?
Answer: The value was 97 % of initial.

Question: And the “Body Weight (Group, % of initial)” value ([1]; Day 3, 10 nmol/kg)?
Answer: Its value is 96 % of initial.

Question: What about the “Body Weight (Group, % of initial)” value ([1]; Day 4, 10 nmol/kg) of the same substance?
Answer: The value was 95 % of initial.

Question: What about the “Body Weight (Group, % of initial)” value ([1]; Day 5, 10 nmol/kg) of the same substance?
Answer: Its value is 94 % of initial.

Question: And the “Body Weight (Group, % of initial)” value ([1]; Day 6, 10 nmol/kg)?
Answer: The value was 95 % of initial.

Question: And the “Body Weight (Group, % of initial)” value ([1]; Day 7, 10 nmol/kg)?
Answer: The value was 95 % of initial.

Question: And the “Body Weight (Group, % of initial)” value ([1]; Day 8, 10 nmol/kg)?
Answer: The value was 95 % of initial.

Question: And the “Body Weight (Group, % of initial)” value ([1]; Day 9, 10 nmol/kg)?
Answer: The value was 96 % of initial.

Question: And the “AUCextp (%) [(AUCinf − AUClast)/AUCinf]*100” value [2]?
Answer: Its value is 0.287%.

Question: What about the AUClast [2] of the same substance?
Answer: The AUClast was 76200 ng·h/mL.

Question: And the “Cmax (maximum concentration in blood)” value [2]?
Answer: Its value is 1110 ng/mL.

Question: And the “Tmax (reaching time to maximum concentration in blood)” value [2]?
Answer: Its value is 24 h.

Question: What about the “t1/2 (loss half-life)” value [2] of the same substance?
Answer: The value was 26.2 h.

Question: And the AUCinf ([2]; extrapolated to infinity)?
Answer: Its AUCinf is 76400 ng·h/mL.
